The source made the active and inactive calls.
Experiments:
[1] = molecular target: T1, Voltage-gated inwardly rectifying potassium channel KCNH2 (Homo sapiens, UniProt Q12809); conditions: Potency;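 also: confirmatory quantitative high-throughput screen measuring inhibition of hERG channel activity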
[2] = Luminescence Cell-Based Dose Confirmation HTS to Identify Inhibitors of Platelet Dense Granule Release. [Related pubchem assays: 1663 (Primary HTS), 1678 (Summary of Project)]; assay type: functional
[3] = molecular target: Luciferin 4-monooxygenase (Photinus pyralis, UniProt P08659); assay: firefly luciferase enzyme inhibitors, dose response, biochemical, luminescence (AID 1891)
Sequence of Luciferin 4-monooxygenase (P08659 whole entry): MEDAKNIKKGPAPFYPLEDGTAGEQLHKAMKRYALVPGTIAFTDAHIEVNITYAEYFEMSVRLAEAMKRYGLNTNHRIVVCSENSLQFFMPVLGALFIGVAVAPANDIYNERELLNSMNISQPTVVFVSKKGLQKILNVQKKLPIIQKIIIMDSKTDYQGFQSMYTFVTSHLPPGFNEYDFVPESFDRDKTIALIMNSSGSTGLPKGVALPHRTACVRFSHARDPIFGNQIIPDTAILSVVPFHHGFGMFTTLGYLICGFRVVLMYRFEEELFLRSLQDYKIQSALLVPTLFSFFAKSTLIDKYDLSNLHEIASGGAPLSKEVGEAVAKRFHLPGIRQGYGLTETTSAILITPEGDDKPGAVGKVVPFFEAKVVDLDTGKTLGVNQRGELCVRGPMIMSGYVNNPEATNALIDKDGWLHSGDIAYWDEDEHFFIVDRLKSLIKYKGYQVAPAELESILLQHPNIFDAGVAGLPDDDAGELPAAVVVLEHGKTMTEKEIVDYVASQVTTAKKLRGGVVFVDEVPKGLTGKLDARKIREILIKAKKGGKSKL

Cytochrome P450 2D6 = Cytochrome P450 2D6 (Homo sapiens, UniProt P10635);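 also: CYP2D6 member of a cytochrome P450 panel assay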
Sequence of Cytochrome P450 2D6 (P10635 whole entry): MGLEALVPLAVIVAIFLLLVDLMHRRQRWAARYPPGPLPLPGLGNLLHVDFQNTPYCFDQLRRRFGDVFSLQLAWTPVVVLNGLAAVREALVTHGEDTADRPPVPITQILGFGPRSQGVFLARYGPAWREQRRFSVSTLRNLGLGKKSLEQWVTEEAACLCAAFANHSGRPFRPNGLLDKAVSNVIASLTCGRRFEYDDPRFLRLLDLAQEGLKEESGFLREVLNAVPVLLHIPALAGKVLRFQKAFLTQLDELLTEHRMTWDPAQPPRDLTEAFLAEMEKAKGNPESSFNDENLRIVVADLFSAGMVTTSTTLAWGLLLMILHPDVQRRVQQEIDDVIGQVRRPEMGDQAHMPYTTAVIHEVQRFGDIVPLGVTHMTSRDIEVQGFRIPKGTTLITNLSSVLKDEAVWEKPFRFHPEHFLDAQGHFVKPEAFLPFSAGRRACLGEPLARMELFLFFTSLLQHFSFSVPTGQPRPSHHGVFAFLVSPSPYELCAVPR

Cytochrome P450 2C19 = Cytochrome P450 2C19 (Homo sapiens, UniProt P33261); assay: Cytochrome panel assay with activity outcomes. Panel member name: p450-cyp2c19 Compounds with AC50 equal or less than 10 uM are considered active; assay type: functional; conditions: read-out: AC50
Sequence of Cytochrome P450 2C19 (P33261 whole entry): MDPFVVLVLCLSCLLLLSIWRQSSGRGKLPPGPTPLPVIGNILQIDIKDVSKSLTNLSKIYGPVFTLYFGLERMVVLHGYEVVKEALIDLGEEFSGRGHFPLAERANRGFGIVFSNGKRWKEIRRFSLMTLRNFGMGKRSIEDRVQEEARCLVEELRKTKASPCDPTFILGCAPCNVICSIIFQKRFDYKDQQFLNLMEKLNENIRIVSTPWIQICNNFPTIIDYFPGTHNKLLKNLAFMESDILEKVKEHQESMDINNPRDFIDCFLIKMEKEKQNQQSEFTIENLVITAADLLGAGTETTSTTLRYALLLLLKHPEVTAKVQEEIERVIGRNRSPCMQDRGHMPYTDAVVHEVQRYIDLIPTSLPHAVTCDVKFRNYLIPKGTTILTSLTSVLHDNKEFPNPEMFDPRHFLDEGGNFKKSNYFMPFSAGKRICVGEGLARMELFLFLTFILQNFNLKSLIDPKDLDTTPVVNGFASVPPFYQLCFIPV

fMet-Leu-Phe receptor = fMet-Leu-Phe receptor (Homo sapiens, UniProt P21462); assay: FPR ligands, dose response (AID 519); assay type: functional
Sequence of fMet-Leu-Phe receptor (P21462 whole entry): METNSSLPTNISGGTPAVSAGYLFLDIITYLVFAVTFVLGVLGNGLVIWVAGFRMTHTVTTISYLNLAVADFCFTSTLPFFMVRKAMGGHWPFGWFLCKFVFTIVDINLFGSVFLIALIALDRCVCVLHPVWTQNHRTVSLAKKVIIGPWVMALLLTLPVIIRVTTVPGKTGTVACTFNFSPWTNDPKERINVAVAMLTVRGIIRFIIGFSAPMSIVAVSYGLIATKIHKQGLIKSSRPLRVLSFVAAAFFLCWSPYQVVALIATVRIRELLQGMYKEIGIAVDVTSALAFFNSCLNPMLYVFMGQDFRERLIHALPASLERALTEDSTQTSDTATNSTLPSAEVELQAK

Streptococcus = assay: Group A Streptococcus viability loss, dose response, counter-screen for streptokinase expression inhibitor project, luminescence, BacTiterGlo (AID 1915); assay type: functional, organism-based; conditions: read-out: EC50;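 also: potency for reduction of bacterial viability or growth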
[4] = molecular target: T2, Kappa-type opioid receptor (Homo sapiens, UniProt P41145); assay type: functional
T2 sequence (P41145 whole entry): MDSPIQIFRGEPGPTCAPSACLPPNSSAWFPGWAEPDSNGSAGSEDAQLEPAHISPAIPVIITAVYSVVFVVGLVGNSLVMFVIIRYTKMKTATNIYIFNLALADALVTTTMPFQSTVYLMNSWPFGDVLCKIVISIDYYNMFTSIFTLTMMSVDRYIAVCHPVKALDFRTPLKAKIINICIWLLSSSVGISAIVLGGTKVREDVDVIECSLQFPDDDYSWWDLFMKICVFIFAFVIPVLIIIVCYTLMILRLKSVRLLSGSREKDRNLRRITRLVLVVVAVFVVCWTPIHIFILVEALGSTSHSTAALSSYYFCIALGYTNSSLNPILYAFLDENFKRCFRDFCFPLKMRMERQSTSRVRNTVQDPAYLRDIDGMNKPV

[5] = HepG2 cell cytotoxicity, dose response, cytotoxicity control for Shn3 inhibitor project, CellTiter-Glo, cherry-picked (AID 624134); assay type: functional, cell-based
Vero = assay: cells; assay type: functional; conditions: Chlorocebus sabaeus
[6] = molecular target: T3, Delta-type opioid receptor (Homo sapiens, UniProt P41143); assay: HTS Image-Based Screen for Agonists of the DOR Receptor. [Related pubchem assays (depositor defined):AID1777, AID1786, AID2133]; assay type: functional
T3 sequence (P41143 whole entry): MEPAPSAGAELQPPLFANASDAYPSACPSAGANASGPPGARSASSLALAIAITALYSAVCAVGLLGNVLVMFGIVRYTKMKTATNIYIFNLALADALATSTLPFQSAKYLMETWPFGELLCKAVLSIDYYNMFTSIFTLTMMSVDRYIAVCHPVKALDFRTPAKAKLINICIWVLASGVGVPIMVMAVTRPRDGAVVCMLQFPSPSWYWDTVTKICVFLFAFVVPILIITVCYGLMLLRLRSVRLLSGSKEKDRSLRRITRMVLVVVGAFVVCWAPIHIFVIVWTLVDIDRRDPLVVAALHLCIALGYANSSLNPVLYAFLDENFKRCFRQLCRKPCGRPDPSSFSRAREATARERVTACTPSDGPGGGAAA

[7] = molecular target: T4, Heat shock factor protein 1 (Mus musculus, UniProt P38532); assay: HSF1 potentiators in luciferase reporter cells, confirmation, cell-based, NIH3T3, luminescence, dose retest (AID 435004); assay type: functional;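 also: stress induced by proteasome inhibitor MG132 added 30 min after compound; luciferase reporter driven by HSF1 response element in NIH3T3 cells; actives raise luminescence as potentiators of the MG132 stress response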
T4 sequence (P38532 whole entry): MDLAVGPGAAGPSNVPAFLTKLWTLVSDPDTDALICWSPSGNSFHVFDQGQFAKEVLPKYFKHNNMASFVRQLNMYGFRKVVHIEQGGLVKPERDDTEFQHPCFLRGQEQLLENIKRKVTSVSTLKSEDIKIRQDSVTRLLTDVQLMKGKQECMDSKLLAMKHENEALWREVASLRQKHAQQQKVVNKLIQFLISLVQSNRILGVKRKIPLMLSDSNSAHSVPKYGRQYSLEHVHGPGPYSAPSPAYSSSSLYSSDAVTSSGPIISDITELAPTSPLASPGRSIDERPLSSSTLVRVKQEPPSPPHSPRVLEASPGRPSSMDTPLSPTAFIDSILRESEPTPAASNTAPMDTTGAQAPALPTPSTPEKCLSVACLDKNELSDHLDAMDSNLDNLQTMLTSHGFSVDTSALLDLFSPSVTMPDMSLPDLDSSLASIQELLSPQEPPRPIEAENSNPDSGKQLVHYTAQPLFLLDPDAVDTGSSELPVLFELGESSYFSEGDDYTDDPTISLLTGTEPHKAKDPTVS

[8] = molecular target: T3, Delta-type opioid receptor; assay: HTS Image-Based Screen for Antagonists of the DOR Receptor. [Related pubchem assays (depositor defined):AID1777, AID1785, AID1786, AID2133]; assay type: functional
Mu-type opioid receptor = Mu-type opioid receptor (Homo sapiens, UniProt P35372); assay: HTS Image-Based Screen for Agonists of the MOR Receptor. [Related pubchem assays (depositor defined):AID1777, AID1785, AID1786, AID2133]; assay type: functional;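 also: imaging of beta-arrestin GFP recruitment into spots after receptor activation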
Beta-galactosidase = Beta-galactosidase (Escherichia coli, UniProt Q8VNN2); assay type: functional
[9] = tested on: Streptococcus sp. 'group A'; assay: growth inhibition of control SK(-) GAS strain, dose response, counter-screen for streptokinase expression inhibitor project, luminescence, kanamycin, BacTiterGlo, confirmation (AID 1900); assay type: functional, organism-based
[10] = molecular target: Induced myeloid leukemia cell differentiation protein Mcl-1 (Homo sapiens, UniProt Q07820); assay type: functional
Sequence of Induced myeloid leukemia cell differentiation protein Mcl-1 (Q07820 whole entry): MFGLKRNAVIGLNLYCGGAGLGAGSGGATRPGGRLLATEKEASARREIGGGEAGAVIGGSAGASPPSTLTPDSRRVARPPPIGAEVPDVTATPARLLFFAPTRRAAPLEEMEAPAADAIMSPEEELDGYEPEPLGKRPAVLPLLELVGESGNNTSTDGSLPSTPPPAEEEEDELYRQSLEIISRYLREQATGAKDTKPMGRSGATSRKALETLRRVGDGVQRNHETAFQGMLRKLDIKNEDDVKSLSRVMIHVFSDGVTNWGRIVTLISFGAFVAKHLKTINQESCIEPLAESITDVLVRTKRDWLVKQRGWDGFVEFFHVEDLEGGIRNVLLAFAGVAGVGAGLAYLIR

[11] = molecular target: T2, Kappa-type opioid receptor; assay type: functional; remark: listed apart in the source
[12] = control 3'UTR Renilla luciferase suppression, dose response, counter-screen for Shn3 inhibitor project, cell-based, Clone20-Shn3RL, cherry-picked (AID 624133); assay type: functional
[13] = molecular target: E3 ubiquitin-protein ligase Mdm2 (Homo sapiens, UniProt Q00987); assay: enhancers of MDM2-luciferase reporter signal, concentration-effect titration, project on inhibitors of MDM2 ubiquitin ligase, cellular assay, luminescent readout, 384-well plate format (AID 1394); assay type: functional;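 also: MDM2 E3 inhibitors raise luminescence so EC50 is for signal enhancement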
[14] = Shn3 3'UTR reporter inhibitors, dose response, cell-based, Clone20 osteoblasts, firefly luciferase, cherry-picked (AID 624132); assay type: functional;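 also: firefly luciferase luminescence from reporter carrying the Shn3 3'UTR in osteoblasts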
[15] = molecular target: T1, Voltage-gated inwardly rectifying potassium channel KCNH2; assay: hERG protection from proarrhythmic block, potency, dose response, cell-based, thallium flux (AID 2121); assay type: ADME
[16] = cytotoxicity in HMLE control line with eGFP shRNA, dose response, counter-screen for HMLE_sh_ECad selective toxicity project, cell-based, HMLE_sh_eGFP, luminescence (AID 463074); assay type: functional, Homo sapiens;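 also: HMLE human mammary epithelial cells expressing control shRNA against eGFP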
[17] = Luminescence Cell-Based Dose Retest to Confirm Inhibitors of Cancer Stem Cells. [Related pubchem assays (depositor defined):AID2717, AID2721]; assay type: functional; conditions: Homo sapiens
[18] = molecular target: Dual specificity protein kinase CLK1 (Homo sapiens, UniProt P49759); assay: CLK1 kinase inhibitors, off-target check, dose response, selectivity assay for Dyrk1A inhibitor project, biochemical, cherry-picked samples (AID 588811)
Sequence of Dual specificity protein kinase CLK1 (P49759 whole entry): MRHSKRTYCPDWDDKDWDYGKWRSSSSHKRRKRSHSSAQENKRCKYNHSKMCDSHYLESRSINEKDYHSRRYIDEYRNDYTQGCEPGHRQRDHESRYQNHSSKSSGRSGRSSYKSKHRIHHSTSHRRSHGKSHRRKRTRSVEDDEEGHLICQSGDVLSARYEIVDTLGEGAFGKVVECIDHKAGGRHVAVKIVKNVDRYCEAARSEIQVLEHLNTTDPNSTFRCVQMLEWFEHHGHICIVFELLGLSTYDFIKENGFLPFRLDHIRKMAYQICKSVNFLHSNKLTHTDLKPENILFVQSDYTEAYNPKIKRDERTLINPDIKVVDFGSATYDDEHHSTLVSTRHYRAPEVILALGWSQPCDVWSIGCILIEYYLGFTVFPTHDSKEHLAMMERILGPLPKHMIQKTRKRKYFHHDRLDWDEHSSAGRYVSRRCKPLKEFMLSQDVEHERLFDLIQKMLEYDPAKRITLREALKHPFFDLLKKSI

Phosphomannomutase 2 = Phosphomannomutase 2 (Homo sapiens, UniProt O15305); assay: Counter screen SAR assay for PMM2 inhibitors via a fluorescence intensity assay. [Related pubchem assays (depositor defined):AID1545, AID1574]
[19] = molecular target: T5, Mannose-6-phosphate isomerase (Homo sapiens, UniProt P34949); assay: PMI enzyme inhibitors, confirmation, biochemical, fluorescence intensity (AID 1535)
T5 sequence (P34949 whole entry): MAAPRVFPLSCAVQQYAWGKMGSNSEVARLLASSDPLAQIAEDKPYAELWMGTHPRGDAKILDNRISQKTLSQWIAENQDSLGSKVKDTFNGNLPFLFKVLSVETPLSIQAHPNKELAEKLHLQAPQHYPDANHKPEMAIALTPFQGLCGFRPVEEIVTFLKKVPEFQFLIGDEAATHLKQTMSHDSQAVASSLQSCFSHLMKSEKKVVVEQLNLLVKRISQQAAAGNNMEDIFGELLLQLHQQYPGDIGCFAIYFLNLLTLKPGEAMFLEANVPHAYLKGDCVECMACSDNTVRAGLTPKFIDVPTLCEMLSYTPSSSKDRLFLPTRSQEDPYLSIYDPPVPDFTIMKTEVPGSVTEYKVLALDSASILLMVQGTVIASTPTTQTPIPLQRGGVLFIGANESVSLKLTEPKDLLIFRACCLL

[20] = molecular target: Potassium voltage-gated channel subfamily KQT member 2 (Rattus norvegicus, UniProt O88943); assay: KCNQ2 channel activators, analog series, SAR follow-up, automated patch clamp, KCNQ2-CHO cells (AID 493113); assay type: functional
[21] = molecular target: Dual specificity protein phosphatase 3 (Homo sapiens, UniProt P51452); assay: SAR VHR1 Fluorescent Assay for In Vitro dose response studies Set 3. [Related pubchem assays (depositor defined):AID1654, AID1661, AID1878]; assay type: functional
Sequence of Dual specificity protein phosphatase 3 (P51452 whole entry): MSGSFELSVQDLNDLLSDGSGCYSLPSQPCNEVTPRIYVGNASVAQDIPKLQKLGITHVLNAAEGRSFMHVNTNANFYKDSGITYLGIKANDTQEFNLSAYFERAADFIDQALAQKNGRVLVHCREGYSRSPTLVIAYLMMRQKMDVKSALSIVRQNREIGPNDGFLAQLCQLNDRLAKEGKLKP

INS1 = assay: protection of INS-1E cells from cytokine death, dose response, ATP luminescence, dry powder (AID 488844); assay type: functional, cell-based; conditions: Rattus norvegicus
[22] = molecular target: Short transient receptor potential channel 6 (Mus musculus, UniProt Q61143); assay: TRPC6 inhibition potency of TRPC4 inhibitor analogs, dose response, selectivity assay for selective TRPC4 inhibitor project, HEK293 cells, membrane potential dye, IC50 (AID 492987); assay type: functional, cell-based
[23] = molecular target: T6, Short transient receptor potential channel 4 (Mus musculus, UniProt Q9QUQ5); assay: TRPC4 inhibition under acetylcholine activation, SAR follow-up, cell-based, acetylcholine stimulus, HEK293 TRPC4, Fluo-4 (AID 492996); assay type: functional
T6 sequence (Q9QUQ5 whole entry): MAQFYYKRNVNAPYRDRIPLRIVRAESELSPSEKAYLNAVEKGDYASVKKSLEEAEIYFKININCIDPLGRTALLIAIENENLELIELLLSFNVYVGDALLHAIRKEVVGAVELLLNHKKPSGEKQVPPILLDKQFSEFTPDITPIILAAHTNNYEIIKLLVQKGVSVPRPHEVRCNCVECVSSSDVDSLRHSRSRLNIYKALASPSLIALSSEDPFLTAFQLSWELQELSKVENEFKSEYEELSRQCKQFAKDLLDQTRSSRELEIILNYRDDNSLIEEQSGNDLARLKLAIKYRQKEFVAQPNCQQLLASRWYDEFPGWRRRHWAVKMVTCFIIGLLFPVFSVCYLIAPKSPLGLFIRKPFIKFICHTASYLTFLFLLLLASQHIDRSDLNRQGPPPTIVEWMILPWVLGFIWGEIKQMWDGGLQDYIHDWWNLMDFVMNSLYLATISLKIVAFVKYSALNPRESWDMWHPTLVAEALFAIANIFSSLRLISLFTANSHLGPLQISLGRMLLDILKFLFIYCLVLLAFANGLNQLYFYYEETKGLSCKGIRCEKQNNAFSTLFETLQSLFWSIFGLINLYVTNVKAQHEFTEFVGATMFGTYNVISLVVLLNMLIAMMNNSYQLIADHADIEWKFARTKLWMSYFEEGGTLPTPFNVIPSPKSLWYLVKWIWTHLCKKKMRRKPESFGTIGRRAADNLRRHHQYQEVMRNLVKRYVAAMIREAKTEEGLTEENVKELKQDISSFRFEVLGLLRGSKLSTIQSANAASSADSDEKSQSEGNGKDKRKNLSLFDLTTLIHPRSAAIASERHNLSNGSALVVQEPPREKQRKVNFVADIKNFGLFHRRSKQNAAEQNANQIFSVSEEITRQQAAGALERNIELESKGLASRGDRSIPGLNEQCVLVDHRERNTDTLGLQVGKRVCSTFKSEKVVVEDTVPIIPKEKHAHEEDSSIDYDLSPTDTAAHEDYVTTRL

[24] = molecular target: T6, Short transient receptor potential channel 4; assay: SAR Analysis for the identification of selective inhibits of the transient receptor potential cation channel C4 (TRPC4): Automated Electrophysiology. [Related pubchem assays (depositor defined):AID2256]; assay type: functional
[25] = molecular target: T6, Short transient receptor potential channel 4; assay: TRPC4 inhibitor concentration-response, dose response, cell-based, HEK293 TRPC4/mu-opioid, DAMGO stimulus, Fluo-4 (AID 492994); assay type: functional

T1 sequence (Q12809 whole entry): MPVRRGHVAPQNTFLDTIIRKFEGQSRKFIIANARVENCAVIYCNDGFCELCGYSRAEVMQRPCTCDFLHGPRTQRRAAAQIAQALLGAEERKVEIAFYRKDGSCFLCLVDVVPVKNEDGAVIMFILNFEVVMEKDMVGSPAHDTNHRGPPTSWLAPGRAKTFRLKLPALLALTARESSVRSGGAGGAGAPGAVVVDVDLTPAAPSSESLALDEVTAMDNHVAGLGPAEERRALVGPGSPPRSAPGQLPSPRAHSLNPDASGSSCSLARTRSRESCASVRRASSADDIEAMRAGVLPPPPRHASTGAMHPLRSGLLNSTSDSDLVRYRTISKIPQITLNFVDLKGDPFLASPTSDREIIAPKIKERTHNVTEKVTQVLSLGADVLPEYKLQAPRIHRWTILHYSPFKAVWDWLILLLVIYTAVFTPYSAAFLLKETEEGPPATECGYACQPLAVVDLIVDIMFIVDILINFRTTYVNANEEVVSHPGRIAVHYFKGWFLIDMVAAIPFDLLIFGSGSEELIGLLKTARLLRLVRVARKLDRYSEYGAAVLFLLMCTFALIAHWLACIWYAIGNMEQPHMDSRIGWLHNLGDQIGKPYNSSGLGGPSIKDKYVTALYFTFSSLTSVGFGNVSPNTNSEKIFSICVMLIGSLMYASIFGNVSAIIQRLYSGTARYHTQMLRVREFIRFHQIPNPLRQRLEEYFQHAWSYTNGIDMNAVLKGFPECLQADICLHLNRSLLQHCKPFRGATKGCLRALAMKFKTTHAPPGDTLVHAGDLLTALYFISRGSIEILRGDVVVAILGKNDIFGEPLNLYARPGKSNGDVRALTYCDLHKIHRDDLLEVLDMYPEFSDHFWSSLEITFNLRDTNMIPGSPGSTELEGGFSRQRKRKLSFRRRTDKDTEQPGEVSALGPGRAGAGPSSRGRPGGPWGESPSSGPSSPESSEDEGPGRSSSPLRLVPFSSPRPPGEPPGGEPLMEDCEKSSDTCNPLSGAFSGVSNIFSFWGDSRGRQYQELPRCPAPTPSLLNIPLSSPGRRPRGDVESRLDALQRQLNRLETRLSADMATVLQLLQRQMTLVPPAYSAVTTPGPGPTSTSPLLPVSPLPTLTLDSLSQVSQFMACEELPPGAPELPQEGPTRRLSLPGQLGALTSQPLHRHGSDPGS

## O=C(Cc1ccc(Cl)c(Cl)c1)N1CCCCC1CN1CCCC1 (centres undefined)
[1]
  AC50: 25.1 µM (inconclusive)

## Cc1ccc(C2C(C(=O)c3sc(C)nc3C)=C(O)C(=O)N2CCN2CCOCC2)o1 (centres undefined)
[2]
  EC50: > 112 µM (not active)
[3]
  EC50: > 112 µM (not active)
Cytochrome P450 2D6
  AC50: inconclusive
Cytochrome P450 2C19
  AC50: 0.00562 µM (inconclusive)
fMet-Leu-Phe receptor
  Ki: > 66.7 µM (inactive)

## N=C1S/C(=C\c2ccc(-c3cccc(Cl)c3)o2)C(=O)N1c1nccs1
Streptococcus
  EC50: 0.228 µM (active)
[4]
  IC50: > 32 µM
[5]
  AC50: 13.7 µM (active)
Vero
  CC50: 4.5 µM (active)
[6]
  EC50: > 32 µM (inactive)
[7]
  EC50: 5.39 µM (active)
[8]
  IC50: > 32 µM (inactive)
Mu-type opioid receptor
  EC50: > 32 µM (inactive)
Beta-galactosidase
  EC50: > 31.5 µM (inactive)
[9]
  EC50: < 0.06 µM (active)
[10]
  IC50: 0.745 µM (active)
[11]
  IC50: 5.72 µM (active)
[12]
  AC50: 6.17 µM (active)
[13]
  EC50: 0.01 µM (not active)
[14]
  AC50: 2.82 µM (active)
[15]
  EC50: 0.42 µM (active)

## Cc1ccc(OCC(=O)NNC(=S)NC(=O)c2cccs2)c(C)c1
[16]
  AC50: 37.8 µM (active)
[17]
  AC50: 9.13 µM (active)

## CN(Cc1cccs1)c1ncnc2ccc(-c3ccc4c(c3)OCO4)cc12
[18]
  AC50: < 0.00195 µM (active)

## Clc1nss/c1=N\c1ccccc1Br
Phosphomannomutase 2
  IC50: 57.3 µM (active)
[19]
  IC50: 11.9 µM (active)

## O=C(Nc1ccc(Cl)cc1Cl)C1CC2CCC1C2 (centres undefined)
[20]
  EC50: 1.52 µM (active)

## CC(C)(C)c1ccc(C(=O)NCc2nnc(SCC(=O)Nc3nc4ccccc4s3)n2-c2cccc(Cl)c2)cc1
[21]
  IC50: > 66 µM (inactive)

## COc1ccc(S(=O)(=O)N(C)C[C@@H]2Oc3c(NS(=O)(=O)c4ccc(Cl)cc4)cccc3C(=O)N([C@@H](C)CO)C[C@H]2C)cc1
INS1
  AC50: > 260 µM (inactive)

## Cc1cc(N2CCC[C@@H]2C)nc2ccccc12
[22]
  IC50: 11.8 µM (active)
[23]
  IC50: 17.1 µM (active)
[24]
  IC50: 4.26 µM (active)
[25]
  IC50: 2.5 µM (active)

Source: ChEMBL document CHEMBL1201862, “PubChem BioAssay data set” (2004)
